Assays:
[1] = system: clinical isolates of E. coli containing TEM or SHV enzymes; assay: MIC of ampicillin with or without 30 µg/mL TEM3.2 in clinical isolates; assay type: cell-based, Escherichia coli; conditions: 30 μg/mL TEM3.2; 14 out of 16 isolates
Method: (§1) Determination of MIC values was performed using the broth microdilution method according to the EUCAST guideline, which was performed in 96-well polystyrene flat-bottom microtiter plates (BD Biosciences). Briefly, a single colony was inoculated into 5 mL Difco™ Mueller–Hinton Broth (BD Biosciences Ref 275730) and grown to the end-exponential growth phase in a shaking incubator at 37 °C. Cultures were subsequently diluted to a MacFarland (0.5 optical density) to reach 10^6 CFU/mL in fresh MHB medium. 50 µl of different concentrations of peptides ranging from 128 to 2 µg/mL were serially diluted to the sterile 96-well plate in MHB. 50 µL of the diluted bacteria in MHB were next pipetted into 96-well plates to reach the final volume of 100 µL. The bacteria grown with the maximum concentration of carrier and medium were considered positive and negative controls, respectively. The plates were statically incubated overnight at 37 °C to allow bacterial growth. OD was measured at 590 nm using a multipurpose ultraviolet–visible plate reader, and the absorbance of the bacterial growth was measured using an absorbance reader.

[2] = system: uro-pathogenic E. coli strain (UPEC strain blaTEM-1); assay: MIC of ampicillin with or without 32 µg/mL TEM3.2 or tazobactam; assay type: cell-based, Escherichia coli; conditions: 32 μg/mL of either TEM3.2 or tazobactam
Method: We also performed a tolerability study using a dose escalation method by administering the peptide at 2, 5, 10, 15, and 20 mg/kg via different parenteral routes: intravenous (IV), intraperitoneal (IP), and subcutaneous (SC) in female C57BL/6JAX mice, aged 8–10 weeks (Suppl Table 4). […] Vehicle alone (0.9% NaCl) was also administered (IV). After 24 h the animals were sacrificed and the bacterial load in the bladder, kidney, and ureter was quantified by determining the number of colony-forming units (CFU) per mL of tissue extract (Fig. 7E–G).
as §1

[3] = Dynamic Light Scattering of peptide (hydrodynamic radius); assay type: physicochemical
Method: (§2) Fig. 4 Aggregation kinetics of TEM and SHV proteins and peptides. A Measurements of the hydrodynamic radius by Dynamic Light Scattering of 50 μM TEM3.2 in buffer alone, or in the presence of LPS or polyphosphate (PolyP). […] C Transmission Electron Micrograph of 50 μM TEM 3.2 incubated for 24 h in the same buffer as A with polyP, negatively stained with 2% (w/v) uranyl acetate. A single representative image is shown. […] Three replicates are shown for each condition. E Aggregation kinetics using pFTAA fluorescence emission of recombinantly purified TEM-1, in the presence of vehicle, or TEM 3.2 peptin, as well as peptin-only control. F Similar as in E, but using an off-target Pept-In, based on an APR sequence of beta-galactosidase. G Similar to E, but now using a previously published off-target Pept-In, based on an APR of HcaB. The plots are the results of a single experiment, all replicates are shown. Source data are provided as a Source Data file.
(§3) A DynaPro DLS plate reader instrument (Wyatt, Santa Barbara, CA, USA) equipped with an 830 nm laser source was used to determine the hydrodynamic radius (RH) of the peptide particles. […] The autocorrelation of scattered light intensity at a 32° angle was recorded for 5 s and averaged over 20 recordings to obtain a single data point. […]

[4] = Thioflavin-T aggregation kinetics and electron microscopy of peptide; assay type: physicochemical; conditions: 50 μM peptide with polyphosphate; EM after 24 h incubation at RT
Method: as §2, §3

TEM beta-lactamase = target: T1, TEM beta-lactamase (Escherichia coli, UniProt P62593); assay: β-lactamase activity assay (nitrocefin); assay type: biochemical; conditions: chromogenic substrate nitrocefin, Suppl Fig. 8
T1 construct: His-tag (N); TEV cleavage site (N); made in house; host or cells: E. coli BL21 (DE3)
Method: The beta-lactamase assay procedure is based on the hydrolysis of the substrate Nitrocefin, a chromogenic cephalosporin, which produces a colored product (detectable at OD = 490 nm) that is directly proportional to the quantity of beta-lactamase activity. This experiment was carried out in 96-well black polystyrene flat-bottom microtiter plates (BD Biosciences). In brief, 50 μl of different concentrations of peptides or tazobactam in PBS were added to each well, followed by 50 μl of beta-lactamase protein at a final concentration of 12 ng. The plate was incubated at 37 °C for 1 h. The control heat was heated for 1 h at 95 degrees Celsius. Each well received 5 μl of Nitrocefin at a stock concentration of 0.5 mg/mL Nitrocefin. The hydrolyzed Nitrocefin was identified by absorption at 490 nm, which is proportional to the amount of beta-lactamase activity.

[5] = system: E. coli strain lacking TEM (ATCC 25922); assay: Structured illumination microscopy, inclusion bodies in strain lacking TEM; assay type: cell-based, Escherichia coli; conditions: 12 μM, 120 min, pFTAA stain, SIM
Description: Fig. 5 Induction of aggregation in cells. […] A single representative image is shown. […] A single representative image is shown. C SIM and brightfield images as in A, but for E. coli ATCC strain. […] A single representative image is shown. […] A single representative blot is shown. […] The corrected P-values were 0.6091, 0.0029, 0.0027, <0.0001, and 0.9992, from left to right. […] Statistics exactly as in E, but from 3 independent experiments. The corrected P-values were 0.8753, 0.9796, 0.0001, 0.0003, and 0.0003, from left to right. Source data are provided as a Source Data file.
The bacterial cultures were washed with PBS, and the number of bacteria was adjusted to 10^8–10^9 cells/mL. […] Then, cells were treated with LCO dyes (pFTAA; Amytacker^TM680 or Amytacker^TM545: final concentration of 0.5 µM; Ebba Biotech, Sweden) for at least 90 min. The absorption, emission, and excitation spectra for each dye were measured based on the standard Ebbabiotec advice (ebbabiotech.com).
Bacteria were fixed by adding 2.5% paraformaldehyde and 0.04 % glutaraldehyde (final concentrations) to the culture media, followed by incubation at room temperature for 15 min and 30 min on ice. Bacteria were then washed in PBS and resuspended in GTE buffer (50 mM glucose, 25 mM Tris, and 10 mM EDTA, pH 8.0). Directly preceding microscopic analysis, cells were transferred to a glass slide and covered with a coverslip. […]

T1 sequence (P62593 24-286 limits assumed): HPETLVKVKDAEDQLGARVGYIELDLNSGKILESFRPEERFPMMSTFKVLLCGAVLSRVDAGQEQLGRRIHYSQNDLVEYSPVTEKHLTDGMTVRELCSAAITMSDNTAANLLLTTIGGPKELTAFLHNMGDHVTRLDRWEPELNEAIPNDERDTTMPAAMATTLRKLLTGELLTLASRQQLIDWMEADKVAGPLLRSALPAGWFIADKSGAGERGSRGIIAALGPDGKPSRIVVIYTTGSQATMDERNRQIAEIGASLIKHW

Which “clinical isolates containing TEM or SHV sensitized to Ampicillin” value [1] does the source give for Ac-RLTAFLHNRRPRLTAFLRQRR-NH2 [TEM3.2] here?
Its value is 87%.

And the “MIC Ampicillin in the presence of additive” value [2]?
Its value is 25 µg/mL.

What about the “solubility by Dynamic Light Scattering (in words)” value ([3]; 50 μM peptide in buffer alone) of the same substance?
Its value is “soluble in vitro”.

What about the “aggregation by Dynamic Light Scattering (in words)” value ([3]; 50 μM peptide in the presence of LPS or polyphosphate (PolyP)) of the same substance?
The value was “aggregates readily when triggered by appropriate interactions”.

And the “Thioflavin T binding and Transmission Electron Microscopy (in words)” value [4]?
Its value is “amyloid-like aggregation in the presence of polyphosphate”.

And the “effect on beta-lactamase enzymatic function (in words)” value (TEM beta-lactamase)?
Its value is “loss of function of the enzymatic function of the beta-lactamase”.

And the “inclusion body formation (in words)” value [5]?
Its value is “only very limited inclusion body formation”.

— article PMC10492782, “Exploiting the aggregation propensity of beta-lactamases to design inhibitors that induce enzyme misfolding” (Nature Communications, 2023)
